Experimental data taken from US8642657B2 (Gruenenthal GmbH, priority 2003, dated 2014).
pKi: −log10 of the molar value.

What was measured:
[1] = molecular target: T1, rat VR1 (Rattus norvegicus, UniProt O35433); test: [3H]resiniferatoxin (RTX) competition binding assay, VR1-transfected CHO cells; conditions: for Ki: competition with [3H]RTX, rat VR1 in CHO cells, read-out: Ki (nM) Binding Affinity
T1 construct: expressed in transfected cells
Summary of the method: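 Competition with [3H]RTX (50-100 pM) ran 60 min at 37° C using whole VR1-induced CHO cells in BSA-containing DPBS, nonspecific defined by 100 nM cold RTX. After centrifugation, pellet radioactivity counted by scintillation; Hill fits gave Ki and cooperativity.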

[2] = molecular target: T1, rat VR1; test: 45Ca2+-uptake assay in CHO/VR1 cells, antagonism of capsaicin-stimulated uptake; format: cell-based; conditions: 45Ca2+ uptake stimulated by 50 nM capsaicin

T1 sequence (O35433 whole entry): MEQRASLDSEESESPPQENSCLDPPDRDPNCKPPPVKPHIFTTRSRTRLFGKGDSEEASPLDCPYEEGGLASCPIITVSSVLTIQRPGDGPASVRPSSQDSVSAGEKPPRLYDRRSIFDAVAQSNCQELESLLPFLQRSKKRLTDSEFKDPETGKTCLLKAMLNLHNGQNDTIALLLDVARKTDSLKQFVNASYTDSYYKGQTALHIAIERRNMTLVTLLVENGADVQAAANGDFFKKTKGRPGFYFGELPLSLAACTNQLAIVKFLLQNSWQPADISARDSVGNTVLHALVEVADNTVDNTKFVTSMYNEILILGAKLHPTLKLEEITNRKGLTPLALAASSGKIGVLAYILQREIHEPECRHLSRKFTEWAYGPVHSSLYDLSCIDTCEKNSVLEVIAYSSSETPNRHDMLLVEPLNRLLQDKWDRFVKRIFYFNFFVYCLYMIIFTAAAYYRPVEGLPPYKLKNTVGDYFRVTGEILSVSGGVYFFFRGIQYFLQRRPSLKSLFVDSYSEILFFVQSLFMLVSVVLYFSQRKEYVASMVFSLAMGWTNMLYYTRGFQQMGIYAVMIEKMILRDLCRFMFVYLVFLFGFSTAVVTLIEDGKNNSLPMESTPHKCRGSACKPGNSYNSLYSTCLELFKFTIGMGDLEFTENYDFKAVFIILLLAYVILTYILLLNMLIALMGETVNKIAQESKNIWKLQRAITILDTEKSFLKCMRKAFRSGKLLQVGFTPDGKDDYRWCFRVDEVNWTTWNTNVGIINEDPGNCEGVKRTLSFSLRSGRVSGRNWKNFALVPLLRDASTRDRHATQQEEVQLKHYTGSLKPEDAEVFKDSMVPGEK

## CC(C)(C)c1ccc(CNC(=O)C(C)(C)c2ccc(NS(C)(=O)=O)cc2)cc1 [9-7, N-(4-tert-Butylbenzyl)-2-[4-(methylsulfonylamino)phenyl]-2-methylpropionamide]
[1]
  pKi: 6.37
[2]
  Ki: 2550 nM
other
  melting point: 141 to 143 °C

## Cc1ccc(CC(CNC(=O)C2(c3ccc(NS(C)(=O)=O)cc3)CC2)COC(=O)C(C)(C)C)cc1C (stereo not drawn) [12-1, N-[2-(3,4-Dimethylbenzyl)-3-pivaloyloxypropyl]-1-[4-(methylsulfonylamino)phenyl]cyclopropanecarboxamide]
[1]
  Ki: 396 nM
[2]
  Ki: 197 nM
other
  melting point: 54 to 56 °C

## CC(C)(C)c1ccc(CNC(=S)NC(c2ccccc2)c2ccc(NS(C)(=O)=O)c(F)c2)cc1 (stereo not drawn) [20-14]
[1]
  Ki: 100 nM
[2]
  Ki: 861 nM
other
  melting point: 191 °C

## Cc1ccc(CC(CNC(=O)C2(c3ccc(NS(C)(=O)=O)c(F)c3)CC2)COC(=O)C(C)(C)C)cc1C (stereo not drawn) [12-2, N-[2-(3,4-Dimethylbenzyl)-3-pivaloyloxypropyl]-1-[3-fluoro-4-(methylsulfonylamino)phenyl]cyclopropanecarboxamide]
[1]
  Ki: 1580 nM
[2]
  Ki: 567 nM
other
  melting point: 55 to 56 °C

## CC(C(=O)NCc1ccc(Cl)c(Cl)c1)c1ccc(NS(C)(=O)=O)cc1 (stereo not drawn) [2-9, N-(3,4-Dichlorobenzyl)-2-[4-(methylsulfonylamino)phenyl]propionamide]
[1]
  pKi: 5.78
[2]
  Ki: 253 nM
other
  melting point: 130 °C

## C[C@@H](NC(=S)NC[C@@H](COC(=O)C(C)(C)C)Cc1ccc(C(C)(C)C)cc1)c1ccc(NS(C)(=O)=O)cc1 [18-12, N-[(2S)-2-(4-tert-Butylbenzyl)-3-(pivaloyloxy)propyl]-N′-{(1R)-1-[4-(methylsulfonylamino)phenyl]ethyl}thiourea]
[1]
  pKi: 8.09
[2]
  Ki: 30.6 nM
other
  melting point: 88 to 90 °C

## CC(C(=O)NCc1ccc(C(C)(C)C)cc1)c1ccc(NS(C)(=O)=O)c(F)c1 (stereo not drawn) [1-51, N-(4-tert-Butylbenzyl)-2-[3-fluoro-4-(methylsulfonylamino)phenyl]propionamide]
[1]
  pKi: 7.23
[2]
  Ki: 5.47 nM
other
  melting point: 52 to 54 °C

## COc1cc(C(C)C(=O)NCc2ccc(C(C)(C)C)cc2)ccc1NS(C)(=O)=O (stereo not drawn) [1-65, N-(4-tert-Butylbenzyl)-2-[3-methoxy-4-(methylsulfonylamino)phenyl]propionamide]
[1]
  Ki: 536 nM
[2]
  Ki: 232 nM
other
  melting point: 74 to 76 °C

## C[C@H](NC(=S)NC[C@@H](COC(=O)C(C)(C)C)Cc1ccccc1)c1ccc(NS(C)(=O)=O)cc1 [18-4, N-[(2S)-2-Benzyl-3-(pivaloyloxy)propyl]-N′-{(1S)-1-[4-(methylsulfonylamino)phenyl]ethyl}thiourea]
[1]
  pKi: 6.15
[2]
  Ki: 133 nM
other
  melting point: 62 to 64 °C

## C[C@H](C(=O)NC[C@@H](COC(=O)C(C)(C)C)Cc1ccc(C(C)(C)C)cc1)c1ccc(NS(C)(=O)=O)c(Cl)c1 [6-14, N-[(2S)-2-(4-t-Butylbenzyl)-3-(pivaloyloxy)propyl]-(2S)-2-[3-chloro-4-(methylsulfonylamino)phenyl]propionamide]
[1]
  Ki: 3.29 nM
[2]
  Ki: 12.1 nM
other
  melting point: 55 to 57 °C

## CC(C(=O)NCc1ccc(C(C)(C)C)cc1)c1ccc(NS(C)(=O)=O)c(Cl)c1 (stereo not drawn) [1-52, N-(4-tert-Butylbenzyl)-2-[3-chloro-4-(methylsulfonylamino)phenyl]propionamide]
[1]
  Ki: 30.7 nM
[2]
  Ki: 29.5 nM
other
  melting point: 126 to 129 °C

## Cc1ccc(CC(CNC(=S)NC(C)c2ccc(NS(C)(=O)=O)c(F)c2)COC(=O)C(C)(C)C)cc1C (stereo not drawn) [18-13, N-[2-(3,4-Dimethylbenzyl)-3-(pivaloyloxy)propyl]-N′-{1-[3-fluoro-4-(methylsulfonylamino)phenyl]ethyl}thiourea]
[1]
  pKi: 7.43
[2]
  Ki: 7.09 nM
other
  melting point: 73 °C

## CC(C(=O)NCC(COC(=O)C(C)(C)C)Cc1ccc(C(C)(C)C)cc1)c1ccc(NS(C)(=O)=O)c(F)c1 (stereo not drawn) [5-4, 2-[3-Fluoro-4-(methylsulfonylamino)phenyl]-N-[2-(4-tert-butylbenzyl)-3-pivaloyloxypropyl]propionamide]
[1]
  Ki: 13.6 nM
[2]
  Ki: 3.24 nM
other
  melting point: 113 to 115 °C

## CC(NC(=O)NCc1ccc(C(C)(C)C)cc1)c1ccc(NS(C)(=O)=O)c(F)c1 (stereo not drawn) [23-2, N-(4-t-Butylbenzyl)-N′-{1-[3-fluoro-4-(methylsulfonylamino)phenyl]ethyl}urea]
[1]
  pKi: 6.35
[2]
  Ki: 298 nM
other
  melting point: 152 to 154 °C

## Cc1ccc(CC(CNC(=O)C(C)(C)c2ccc(NS(C)(=O)=O)cc2)COC(=O)C(C)(C)C)cc1C (stereo not drawn) [9-1, N-[2-(3,4-Dimethylbenzyl)-3-pivaloyloxypropyl]-2-[4-(methylsulfonylamino)phenyl]-2-methylpropionamide]
[1]
  Ki: 372 nM
[2]
  Ki: 103 nM
other
  melting point: 126 to 130 °C

## CC(C(=O)NCc1ccc(Cl)c(Cl)c1)c1ccc(NS(C)(=O)=O)c(Cl)c1 (stereo not drawn) [4-5, N-(3,4-Dichlorobenzyl)-2-[3-chloro-4-(methylsulfonylamino)phenyl]propionamide]
[1]
  pKi: 6.54
[2]
  Ki: 176 nM
other
  melting point: 129 to 130 °C

## C[C@H](C(=O)NC[C@H](COC(=O)C(C)(C)C)Cc1ccccc1)c1ccc(NS(C)(=O)=O)c(F)c1 [6-5, N-[(2R)-2-Benzyl-3-(pivaloyloxy)propyl]-(2S)-2-[3-fluoro-4-(methylsulfonylamino)phenyl]propionamide]
[1]
  Ki: 43.4 nM
[2]
  Ki: 8.55 nM
other
  melting point: 40 to 42 °C

## CCC(NC(=S)NCc1ccc(C(C)(C)C)cc1)c1ccc(NS(C)(=O)=O)c(F)c1 (stereo not drawn) [20-12, N-(4-t-Butylbenzyl)-N′-{1-[4-(methylsulfonylamino)-3-fluorophenyl]propyl}thiourea]
[1]
  Ki: 230 nM
[2]
  Ki: 54.3 nM
other
  melting point: 85 °C

## CC(C)(C)c1ccc(CNC(=S)NC(Cc2ccccc2)c2ccc(NS(C)(=O)=O)c(F)c2)cc1 (stereo not drawn) [20-15, N-(4-t-Butylbenzyl)-N′-{1-[4-(methylsulfonylamino)-3-fluorophenyl]-2-phenylethyl}thiourea]
[1]
  Ki: 1740 nM
[2]
  Ki: 695 nM
other
  melting point: 116 °C

## CC(NC(=O)CCc1ccc(C(C)(C)C)cc1)c1ccc(NS(C)(=O)=O)c(F)c1 (stereo not drawn) [24-2, N-{1-[3-Fluoro-4-(methylsulfonylamino)phenyl]ethyl}-3-(4-tert-butylphenyl)propanamide]
[1]
  Ki: 376 nM
[2]
  Ki: 103 nM
other
  melting point: 152 to 154 °C

## C[C@H](NC(=S)NC[C@H](COC(=O)C(C)(C)C)Cc1ccccc1)c1ccc(NS(C)(=O)=O)cc1 [18-3, N-[(2R)-2-Benzyl-3-(pivaloyloxy)propyl]-N′-{(1S)-1-[4-(methylsulfonylamino)phenyl]ethyl}thiourea]
[1]
  pKi: 5.94
[2]
  Ki: 3470 nM
other
  melting point: 58 to 62 °C

## CC(C(=O)NCc1ccc(C(C)(C)C)cc1)c1ccc(NS(C)(=O)=O)c(Br)c1 (stereo not drawn) [1-53, N-(4-tert-Butylbenzyl)-2-[3-bromo-4-(methylsulfonylamino)phenyl]propionamide]
[1]
  Ki: 7.41 nM
[2]
  Ki: 24.9 nM
other
  melting point: 66 to 67 °C

## CC(NC(=S)NCc1ccc(C(C)(C)C)cc1)c1ccc(NS(C)(=O)=O)c(F)c1 (stereo not drawn) [15-2, N-(4-t-Butylbenzyl)-N′-{1-[3-fluoro-4-(methylsulfonylamino)phenyl]ethyl}thiourea]
[1]
  Ki: 54 nM
[2]
  Ki: 9.16 nM
other
  melting point: 165 °C

## Cc1ccc(CCCNC(=O)C(C)(C)c2ccc(NS(C)(=O)=O)c(F)c2)cc1C [9-5, N-[3-(3,4-Dimethylphenyl)propyl]-2-[3-fluoro-4-(methylsulfonylamino)phenyl]-2-methylpropionamide]
[1]
  pKi: 6.02
[2]
  Ki: 418 nM
other
  melting point: 145 to 146 °C

## Cc1ccc(CC(CNC(=S)NC(C)c2ccc(NS(C)(=O)=O)cc2)COC(=O)C(C)(C)C)cc1C (stereo not drawn) [18-5, N-[2-(3,4-Dimethylbenzyl)-3-(pivaloyloxy)propyl]-N′-{1-[4-(methylsulfonylamino)phenyl]ethyl}thiourea]
[1]
  pKi: 7.43
[2]
  Ki: 25.9 nM
other
  melting point: 77 °C

## CC(C(=O)NCc1ccc(Cl)cc1)c1ccc(NS(C)(=O)=O)c(Cl)c1 (stereo not drawn) [4-2, N-(4-Chlorobenzyl)-2-[3-chloro-4-(methylsulfonylamino)phenyl]propionamide]
[1]
  pKi: 6.14
[2]
  Ki: 447 nM
other
  melting point: 134 to 135 °C

## CC(C(=O)NCCC(c1ccccc1)c1ccccc1)c1ccc(NS(C)(=O)=O)c(F)c1 (stereo not drawn) [4-24, N-(3,3-Diphenylpropyl)-2-[3-fluoro-4-(methylsulfonylamino)phenyl]propionamide]
[1]
  pKi: 6.89
[2]
  Ki: 36.6 nM
other
  melting point: 66 to 68 °C

## CC(C(=O)NCc1ccc(C(C)(C)C)cc1)c1ccc(NS(C)(=O)=O)c(I)c1 (stereo not drawn) [1-54, N-(4-tert-Butylbenzyl)-2-[3-iodo-4-(methylsulfonylamino)phenyl]propionamide]
[1]
  Ki: 23.3 nM
[2]
  Ki: 29.9 nM
other
  melting point: 71 °C

## CC(C(=O)NCCc1ccc(C(C)(C)C)cc1)c1ccc(NS(C)(=O)=O)c(F)c1 (stereo not drawn) [4-14, N-[2-(4-t-Butylphenyl)ethyl]-2-[3-fluoro-4-(methylsulfonylamino)phenyl]propionamide]
[1]
  Ki: 553 nM
[2]
  Ki: 42.6 nM
other
  melting point: 124 to 126 °C

## CC(C(=O)NCc1ccc(C(C)(C)C)cc1)c1ccc(NS(C)(=O)=O)cc1Cl (stereo not drawn) [1-67, N-(4-tert-Butylbenzyl)-2-[2-chloro-4-(methylsulfonylamino)phenyl]propionamide]
[1]
  Ki: 1420 nM
[2]
  Ki: 4480 nM
other
  melting point: 134 to 136 °C

## Cc1ccc(CCCNC(=O)C(C)(C)c2ccc(NS(C)(=O)=O)cc2)cc1C [9-4, N-[3-(3,4-Dimethylphenyl)propyl]-2-[4-(methylsulfonylamino)phenyl]-2-methylpropionamide]
[1]
  pKi: 5.77
[2]
  Ki: 573 nM
other
  melting point: 138 to 139 °C
